Some test systems named below: DU-145 prostate; A549 NSCLC; SK-MEL-2 melanoma; SF-539 CNS; COLO 205 colon; SR leukemia; MDA-MB-435; MCF7 breast; SN12C renal; OVCAR-4 ovarian.
Holding throughout (assay): inhibition of tumour cell growth, NCI panel, 48 h

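Five concentrations, 48 hours, 96-well plates. Here, GI50 denotes the concentration required for 50% inhibition of growth. TGI: concentration producing complete growth inhibition.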 Bounds are passed on as bounds.

With `COc1cccc(Cn2c(-c3nonc3NC(C)=O)nc3ccccc32)c1`, the GI50 in the experiment with DU-145 prostate was 3.42 µM; in the experiment with A549 NSCLC it was 5.81 µM; in the experiment with SK-MEL-2 melanoma it was 3.07 µM; with SF-539 CNS, 3.65 µM; in the experiment on COLO 205 colon it was 3.45 µM; in the experiment on SR leukemia, 4.14 µM. Also, the GI50 was 0.642 µM with MDA-MB-435, 4.04 µM in the experiment on MCF7 breast, 5.48 µM with SN12C renal and 15.6 µM in the experiment with OVCAR-4 ovarian. The TGI in the experiment on DU-145 prostate is 83.9 µM; in the experiment on A549 NSCLC it was over 100 µM; with SK-MEL-2 melanoma, 18.9 µM; with SF-539 CNS it was over 100 µM; in the experiment with COLO 205 colon, over 100 µM; in the experiment with SR leukemia, over 100 µM. Moreover, the TGI in the experiment on MDA-MB-435 is 5.48 µM; in the experiment with MCF7 breast, over 100 µM; in the experiment on SN12C renal, over 100 µM; in the experiment on OVCAR-4 ovarian, over 100 µM.
With `Brc1ccccc1C=NC12CC3CC(CC(C3)C1)C2`, the TGI with DU-145 prostate is over 100 µM; in the experiment on A549 NSCLC, over 100 µM; in the experiment with SK-MEL-2 melanoma it was over 100 µM; in the experiment on SF-539 CNS it was over 100 µM; in the experiment with COLO 205 colon, over 100 µM; in the experiment on SR leukemia, over 28.2 µM. Also, the TGI in the experiment with MDA-MB-435 is over 100 µM; with MCF7 breast, over 100 µM; in the experiment with SN12C renal it was over 63.1 µM; with OVCAR-4 ovarian, over 100 µM.
Consider `OCC1OC2OC3C(CO)OC(OC4C(CO)OC(OC5C(CO)OC(OC6C(CO)OC(OC7C(CO)OC(OC1C(O)C2O)C(O)C7O)C(O)C6O)C(O)C5O)C(O)C4O)C(O)C3O` (centres undefined) (tested in a mixture with another compound), for which the TGI in the experiment with DU-145 prostate is over 100 µM; with A549 NSCLC it was over 100 µM; in the experiment with SK-MEL-2 melanoma, over 100 µM; with SF-539 CNS, over 78.8 µM; in the experiment with COLO 205 colon, over 100 µM; with SR leukemia it was 34.3 µM. For the same molecule, the TGI with MDA-MB-435 was 40.7 µM; in the experiment with MCF7 breast, over 100 µM; in the experiment with SN12C renal, over 100 µM; in the experiment with OVCAR-4 ovarian, over 100 µM.
For the molecule `O=C1/C(=C/c2ccccc2F)CN(C(=O)C(Cl)Cl)C/C1=C\c1ccccc1F`, the GI50 with DU-145 prostate was 1.01 µM; in the experiment with A549 NSCLC, 1.38 µM; in the experiment on SK-MEL-2 melanoma, 1.6 µM; in the experiment with SF-539 CNS, 0.431 µM; with COLO 205 colon it was 0.711 µM; with SR leukemia it was 0.0665 µM. The GI50 with MDA-MB-435 was 0.313 µM; in the experiment with MCF7 breast it was 0.101 µM; with SN12C renal it was 0.244 µM; in the experiment with OVCAR-4 ovarian, 0.526 µM. The TGI with DU-145 prostate is 2.35 µM; in the experiment on A549 NSCLC, 3.32 µM; in the experiment with SK-MEL-2 melanoma, 3.62 µM; with SF-539 CNS, 1.78 µM; in the experiment with COLO 205 colon it was 2.57 µM; with MDA-MB-435 it was 1.01 µM. For the same molecule, the values for the TGI with MCF7 breast, in the experiment with SN12C renal and in the experiment on OVCAR-4 ovarian were 0.983 µM, 0.691 µM and 1.83 µM, respectively.
Consider `COc1cc(C2CC(c3ccccc3)=NN2C(C)=O)cc(OC)c1OC` (centres undefined), for which the GI50 with DU-145 prostate is 5.26 µM; in the experiment with A549 NSCLC, 6.63 µM; in the experiment with SK-MEL-2 melanoma, 4.02 µM; in the experiment on SF-539 CNS, 3.06 µM; in the experiment on COLO 205 colon, 2.92 µM; in the experiment on SR leukemia, 0.996 µM. In addition, the GI50 in the experiment on MDA-MB-435 is 0.428 µM; with MCF7 breast, 2.26 µM; in the experiment with SN12C renal, 5.23 µM; in the experiment with OVCAR-4 ovarian, 11.7 µM. For the same molecule, the TGI was 77.3 µM with DU-145 prostate; over 100 µM in the experiment on A549 NSCLC; over 100 µM in the experiment with SK-MEL-2 melanoma; 17.8 µM in the experiment on SF-539 CNS; over 41 µM with COLO 205 colon; over 100 µM in the experiment on SR leukemia. Further, the TGI with MDA-MB-435 is 8.27 µM; in the experiment on MCF7 breast it was over 100 µM; in the experiment with SN12C renal it was over 100 µM; with OVCAR-4 ovarian it was over 100 µM.
Consider `COc1cc(-n2cnc(-c3ccc(Cl)cc3)c2)cc(OC)c1OC`, for which the GI50 in the experiment with DU-145 prostate is over 100 µM; in the experiment on A549 NSCLC, over 100 µM; in the experiment on SK-MEL-2 melanoma it was 18.3 µM; in the experiment on SF-539 CNS it was 17.1 µM; in the experiment with COLO 205 colon, 15.4 µM; in the experiment with SR leukemia, 25.4 µM. Moreover, the GI50 with MDA-MB-435 is 38.4 µM; with MCF7 breast, 17.9 µM; in the experiment with SN12C renal it was over 100 µM; in the experiment with OVCAR-4 ovarian, 15.8 µM. In addition, the TGI was over 100 µM in the experiment with DU-145 prostate; over 100 µM with A549 NSCLC; 40.1 µM in the experiment with SK-MEL-2 melanoma; 34.4 µM with SF-539 CNS; 29.8 µM in the experiment on COLO 205 colon; 62.2 µM in the experiment on SR leukemia. For the same molecule, the TGI in the experiment with MDA-MB-435 was over 100 µM; in the experiment on MCF7 breast, 34.7 µM; in the experiment with SN12C renal it was over 100 µM; in the experiment on OVCAR-4 ovarian, 46.6 µM.
As for `CCn1c(-c2nonc2N)nc2cncc(C(=O)NCCNC)c21`, the GI50 with DU-145 prostate was 22.8 µM; in the experiment with A549 NSCLC it was 4.47 µM; with SK-MEL-2 melanoma, 5.27 µM; in the experiment with SF-539 CNS, 3.04 µM; with COLO 205 colon it was 1.15 µM; in the experiment with SR leukemia, 4.53 µM. Further, the GI50 was 2.64 µM in the experiment with MDA-MB-435, 1.92 µM in the experiment on MCF7 breast, over 25 µM in the experiment on SN12C renal and over 22.8 µM with OVCAR-4 ovarian. Moreover, the TGI in the experiment on DU-145 prostate was over 25 µM; in the experiment with A549 NSCLC it was over 23.3 µM; in the experiment on SK-MEL-2 melanoma, over 25 µM; in the experiment on SF-539 CNS, over 25 µM; in the experiment on COLO 205 colon, 8.51 µM; in the experiment with SR leukemia it was over 25 µM. The TGI in the experiment on MDA-MB-435, in the experiment with MCF7 breast, in the experiment on SN12C renal and in the experiment with OVCAR-4 ovarian was over 25 µM in each case.
As for `CC1(C)N=C(N)N=C(N)N1c1cccc(CCCCOc2ccccc2)c1`, the GI50 was 0.0626 µM in the experiment on DU-145 prostate; 0.0562 µM in the experiment on A549 NSCLC; 1.61 µM in the experiment on SK-MEL-2 melanoma; 0.127 µM in the experiment on SF-539 CNS; 0.0222 µM in the experiment on COLO 205 colon; under 0.011 µM in the experiment with SR leukemia. The GI50 in the experiment on MDA-MB-435 is under 0.0194 µM; in the experiment on MCF7 breast, 0.05 µM; in the experiment on SN12C renal, 0.14 µM; with OVCAR-4 ovarian, 0.441 µM. Moreover, the TGI was over 100 µM in the experiment with DU-145 prostate; 98.8 µM in the experiment with A549 NSCLC; 19.9 µM in the experiment with SK-MEL-2 melanoma; 17 µM in the experiment on SF-539 CNS; 14.4 µM with COLO 205 colon; 20.7 µM in the experiment on SR leukemia. Moreover, the TGI with MDA-MB-435 turned out to be 25 µM; in the experiment with MCF7 breast, 17.5 µM; in the experiment with SN12C renal it was 46.1 µM; in the experiment with OVCAR-4 ovarian, 38.6 µM.
With `CC(=O)OC1Oc2cc(C)c(C)cc2-c2oc(=O)c(-c3ccc(F)cc3)cc21` (centres undefined), the GI50 in the experiment on DU-145 prostate is 10.3 µM; in the experiment on A549 NSCLC, 4.79 µM; in the experiment with SK-MEL-2 melanoma, 6.05 µM; with SF-539 CNS it was 7.1 µM; in the experiment on COLO 205 colon it was 7.3 µM; in the experiment with SR leukemia, 1.21 µM. For the same molecule, the GI50 with MDA-MB-435 is 1.59 µM; with MCF7 breast, 3.08 µM; in the experiment with SN12C renal it was 9.78 µM; in the experiment on OVCAR-4 ovarian it was 11.3 µM. Also, the TGI is 77.7 µM with DU-145 prostate; over 100 µM in the experiment on A549 NSCLC; 41.3 µM in the experiment on SK-MEL-2 melanoma; over 100 µM in the experiment with SF-539 CNS; 26.1 µM in the experiment with COLO 205 colon; 5.22 µM in the experiment with SR leukemia. The TGI in the experiment with MDA-MB-435 is 4.21 µM; with MCF7 breast it was 20.1 µM; with SN12C renal it was over 100 µM; in the experiment on OVCAR-4 ovarian it was 63.9 µM.
For `COc1ccc(OC)c(/C=C2\COc3ccc(O)c(O)c3C2=O)c1`, the GI50 in the experiment with DU-145 prostate was 2.27 µM; with A549 NSCLC it was 3.07 µM; in the experiment on SK-MEL-2 melanoma, 2.84 µM; in the experiment with SF-539 CNS, 2.23 µM; in the experiment on COLO 205 colon, 3.22 µM; in the experiment with SR leukemia, 1.36 µM. The GI50 was 1.97 µM in the experiment on MDA-MB-435, 1.2 µM with MCF7 breast, 2.55 µM in the experiment with SN12C renal and 2.58 µM in the experiment on OVCAR-4 ovarian. The TGI with DU-145 prostate is 7.28 µM; in the experiment on A549 NSCLC, 11.9 µM; in the experiment with SK-MEL-2 melanoma, 8.44 µM; in the experiment with SF-539 CNS, 5.19 µM; with COLO 205 colon, 9.51 µM; in the experiment with SR leukemia, over 100 µM. Further, the TGI came out at 5.48 µM in the experiment on MDA-MB-435, 14.4 µM with MCF7 breast, 11.7 µM with SN12C renal and 14.5 µM in the experiment with OVCAR-4 ovarian.
In the case of `COc1ccc2c(c1)/C(=C\c1c(Cl)n(C)c3ccccc13)C(=O)N2`, the GI50 in the experiment with DU-145 prostate is 3.07 µM; with A549 NSCLC, 0.818 µM; with SK-MEL-2 melanoma, 0.668 µM; in the experiment on SF-539 CNS, 0.672 µM; in the experiment with COLO 205 colon, 0.721 µM; in the experiment with SR leukemia, 0.157 µM. Further, the GI50 is 0.286 µM in the experiment with MDA-MB-435, 0.682 µM with MCF7 breast, 2.57 µM in the experiment with SN12C renal and 7.07 µM with OVCAR-4 ovarian. Also, the TGI in the experiment on DU-145 prostate is 15 µM; in the experiment with A549 NSCLC, over 100 µM; with SK-MEL-2 melanoma, 31.4 µM; with SF-539 CNS, 3.33 µM; with COLO 205 colon, 4.36 µM; with SR leukemia, 0.605 µM. Moreover, the TGI was 1.26 µM in the experiment on MDA-MB-435, over 38.7 µM in the experiment on MCF7 breast, 20.1 µM in the experiment on SN12C renal and over 100 µM with OVCAR-4 ovarian.
On to `CCN(CC)CCCC(Cc1ccccc1)Nc1c2ccc(Cl)cc2nc2ccc(OC)cc12` (centres undefined), for which the GI50 with DU-145 prostate was 5 µM; with A549 NSCLC, 2.79 µM; with SK-MEL-2 melanoma, 1.79 µM; in the experiment with SF-539 CNS, 1.7 µM; in the experiment with COLO 205 colon, 1.61 µM; with SR leukemia, 1.43 µM. The GI50 with MDA-MB-435 is 1.5 µM; in the experiment on MCF7 breast it was 1.54 µM; in the experiment on SN12C renal, 2.92 µM; in the experiment with OVCAR-4 ovarian, 2.15 µM. For the same molecule, the TGI with DU-145 prostate is 18.3 µM; in the experiment with A549 NSCLC, 7.29 µM; in the experiment on SK-MEL-2 melanoma, 3.46 µM; with SF-539 CNS, 3.33 µM; with COLO 205 colon, 3.37 µM; with SR leukemia, 4.25 µM. Further, the TGI amounted to 2.89 µM in the experiment on MDA-MB-435, 3.35 µM with MCF7 breast, 10.2 µM with SN12C renal and 6.2 µM in the experiment with OVCAR-4 ovarian.

(Values after PubChem BioAssay (NCI).)
